From patent US11279735B2, “Cyclic peptide antibiotics” (priority 2017, dated 2022)
In brackets after ≈: the same amount, converted by molar mass. *1 amine or outer side, *2 acyl side, *3 side chain or, on linkers, in order; H or OH if unused. Where a SMILES comes first, the peptide text is derived from it. [ ]: non-standard residue; d: D form. The star is where a group is joined. X2 = CCCCCC[C@@H](OC[C@@H](C)N[*:1])[C@@H](C)C(=O)[*:2]; X23 = CCCCCCCCCC[C@@H](OCCN[*:1])[C@@H](C)C(=O)[*:2]; aIle = CC[C@@H](C)[C@H](N)C(=O)O; NMeL = CN[C@@H](CC(C)C)C(=O)O; Chg = N[C@H](C(=O)O)C1CCCCC1; X8 = NC[C@H]1C[C@H](*)C1; Dap = NC[C@H](N)C(=O)O; X4 = NCC(F)(F)C*

What follows are compounds tested on Escherichia coli (E. coli) strain CFT073 ATCC 700928. Conditions: ATCC 700928, 22 h.
Type: cell-based
Method: In vitro antimicrobial activity of each compound was determined by measuring minimal inhibitor concentrations (MICs) using the broth micro-dilution technique as approved by the Clinical and Laboratory Standards Institute (CLSI) (Methods for Dilution Antimicrobial Susceptibility Tests for Bacteria that Grow Aerobically; Approved Standard—Eighth Edition. CLSI document M07-A8. Wayne, Pa.: Clinical and Laboratroy Standards; 2009). Antibacterial activity was measure against Escherichia coli (E. coli) strain CFT073 ATCC 700928, which is a clinically relevant Gram-negative strain. Cells were inoculated onto plates of Mueller Hinton Agar and grown at 37° C. for 16-18 hours. Inocula suspensions were prepared by scraping cells into 1 mL of testing media (Mueller Hinton II cation adjusted Broth supplemented with 0.002% v/v Tween-80) and diluting to a final OD600 nm of 0.01.
Test compounds were prepared in DMSO at a concentration of 100 uM The compounds were tested under several different dilution formats and the data are reported in Tables 6, 7 and 8. In protocol 1, the compound stocks were diluted into testing media at a concentration of 64 μg/ml and serial 2-fold dilutions were made in the same media, in 96-well U bottom microtiter dishes, for a total of 10 compound concentrations. In protocol 2, the compound stocks were diluted into testing media at a concentration of 4 μg/mL and serial 2-fold dilutions were made in the same media, in 96-well U bottom microtiter dishes, for a total of 10 compound concentrations. In protocol 3, compound stocks were diluted into testing media at a concentration of 0.5 μg/mL, with serial 2-fold dilutions conducted as described above. In protocol 4, compound stocks were diluted into testing media at a concentration of 0.13 μg/mL, with serial 2-fold dilutions conducted as described above. Inocula suspensions were added to the 2-fold serial dilutions of test compounds to a final density of OD OD600 nm of 0.0005 and incubated at 35° C. for 22 hours.
In the case of `CCCC[C@H]1OC(=O)CNC(=O)[C@H]([C@H](C)O)NC(=O)[C@H](CN)NC(=O)[C@H](C2CCCCC2)NC(=O)[C@H](CC(C)C)N(C)C(=O)[C@@H]1CCCC` [Example 66, (6S,9S,12S,15S,18R,19R)-9-(Aminomethyl)-18,19-dibutyl-12-cyclohexyl-6-((S)-1-hydroxyethyl)-15-isobutyl-16-methyl-1-oxa-4,7,10,13,16-pentaazacyclononadecane-2,5,8,11,14,17-hexaone], the MIC is reported as 1.3 µM (≈ 0.903 µg/mL). `CCCCCC[C@H]1OC(=O)CNC(=O)[C@H](CO)NC(=O)[C@H](CN)NC(=O)[C@H]([C@H](C)CC)NC(=O)[C@H](CC(C)C)N(C)C(=O)[C@@H]1C` [Example 11, (6S,9S,12S,15S,18R,19R)-9-(aminomethyl)-19-hexyl-6-(hydroxymethyl)-15-isobutyl-16,18-dimethyl-12-[(1R)-1-methylpropyl]-1-oxa-4,7,10,13,16-pentazacyclononadecane-2,5,8,11,14,17-hexone] gave an MIC of 25 µM (≈ 16 µg/mL). Compound `CCCCCCCCCC[C@H]1OC(=O)CNC(=O)[C@H]([C@H](C)O)NC(=O)[C@H](CCN)NC(=O)[C@H]([C@@H](C)CC)NC(=O)[C@H](CC(C)C)N(C)C(=O)[C@@H]1C` [Example 25, (6S,9S,12S,15S,18R,19R)-9-(2-aminoethyl)-19-decyl-6-[(1S)-1-hydroxyethyl]-15-isobutyl-16,18-dimethyl-12-[(1S)-1-methylpropyl]-1-oxa-4,7,10,13,16-pentazacyclononadecane-2,5,8,11,14,17-hexone] has an MIC of 25 µM (≈ 18.1 µg/mL). For `CCCCCC[C@H]1OC(=O)CNC(=O)[C@H]([C@H](C)O)NC(=O)[C@H](CN)NC(=O)[C@H](C2CCCCC2)NC(=O)[C@H](CC(C)C)N(C)C(=O)[C@@H]1Cc1ccc(-c2ccccc2)cc1` [Example 54, (6S,9S,12S,15S,18R,19R)-18-([1,1′-Biphenyl]-4-ylmethyl)-9-(aminomethyl)-12-cyclohexyl-19-hexyl-6-((S)-1-hydroxyethyl)-15-isobutyl-16-methyl-1-oxa-4,7,10,13,16-pentaazacyclononadecane-2,5,8,11,14,17-hexaone], the MIC was 8.7 µM (≈ 7.25 µg/mL). `CCCCCCCCCC[C@H]1OCCNC(=O)[C@H](CO)NC(=O)[C@H](CN)NC(=O)[C@H]([C@H](C)CC)NC(=O)[C@H](CC(C)C)N(C)C(=O)[C@@H]1C` [Example 99, (6S,9S,12S,15S,18R,19R)-9-(aminomethyl)-19-decyl-6-(hydroxymethyl)-15-isobutyl-16,18-dimethyl-12-[(1R)-1-methylpropyl]-1-oxa-4,7,10,13,16-pentazacyclononadecane-5,8,11,14,17-pentone] (cyclo([Dap]S[X23][NMeL][aIle])) gave an MIC of 17 µM (≈ 11.6 µg/mL). `CCCCCCCCCC[C@H]1OC(=O)CNC(=O)[C@H](C)NC(=O)[C@H](CO)NC(=O)[C@H]([C@@H](C)CC)NC(=O)[C@H](CC(C)C)N(C)C(=O)[C@@H]1C` [Example 30, (6S,9S,12S,15S,18R,19R)-19-decyl-9-(hydroxymethyl)-15-isobutyl-6,16,18-trimethyl-12-[(1S)-1-methylpropyl]-1-oxa-4,7,10,13,16-pentazacyclononadecane-2,5,8,11,14,17-hexone] was tested, and the MIC was 13 µM (≈ 8.86 µg/mL). For `CC(C)C[C@H]1C(=O)N[C@@H](C2CCCCC2)C(=O)N[C@@H](CN)C(=O)N[C@@H]([C@H](C)O)C(=O)NCC(=O)O[C@H](CCCCCCC(C)(C)O)[C@@H](C)C(=O)N1C` [Example 114, (6S,9S,12S,15S,18R,19R)-9-(aminomethyl)-12-cyclohexyl-19-(7-hydroxy-7-methyl-octyl)-15-isobutyl-16,18-dimethyl-6-[(1S)-1-hydroxyethyl]-1-oxa-4,7,10,13,16-pentazacyclononadecane-2,5,8,11,14,17-hexone], the MIC was 15 µM (≈ 11.1 µg/mL). In the case of `CCC[C@H]1C(=O)N[C@@H](C2CCCCCC2)C(=O)N[C@@H](CN)C(=O)N[C@@H]([C@H](C)O)C(=O)NCC(=O)O[C@H](CC2CC3CCC2C3)[C@@H](C)C(=O)N1C` (stereo partly drawn) [Example 134, (6S,9S,12S,15S,18R,19R)-9-(aminomethyl)-12-cycloheptyl-16,18-dimethyl-19-(norbornan-2-ylmethyl)-15-propyl-6-[(1S)-1-hydroxyethyl]-1-oxa-4,7,10,13,16-pentazacyclononadecane-2,5,8,11,14,17-hexone], the MIC is reported as 0.78 µM (≈ 0.55 µg/mL). `CCCCCC[C@H]1OC(=O)CNC(=O)[C@H]([C@@H](O)CO)NC(=O)[C@H](CN)NC(=O)[C@H](C2CCCCC2)NC(=O)[C@H](CC(C)C)N(C)C(=O)[C@@H]1C` [Example 102, (6S,9S,12S,15S,18R,19R)-9-(aminomethyl)-12-cyclohexyl-19-hexyl-15-isobutyl-16,18-dimethyl-6-[(1R)-1,2-dihydroxyethyl]-1-oxa-4,7,10,13,16-pentazacyclononadecane-2,5,8,11,14,17-hexone] was tested, and the MIC was 3.1 µM (≈ 2.16 µg/mL). In the case of `CCCCCC[C@H]1OC(=O)CNC(=O)[C@H]([C@H](C)O)NC(=O)[C@H](CN)NC(=O)C(C2CC3CCC2C3)NC(=O)[C@H](CCC)N(C)C(=O)[C@@H]1C` (single isomer, unassigned) [Example 69], the MIC is reported as 8.8 µM (≈ 5.97 µg/mL). `CCCCCCCCCC[C@H]1OC(=O)CNC(=O)[C@H]([C@H](C)O)NC(=O)[C@H](CO)NC(=O)[C@H](CCC)NC(=O)[C@H](CC(C)C)N(C)C(=O)[C@@H]1C` [Example 40, (6S,9S,12S,15S,18R,19R)-19-decyl-6-((S)-1-hydroxyethyl)-9-(hydroxymethyl)-15-isobutyl-16,18-dimethyl-12-propyl-1-oxa-4,7,10,13,16-pentaazacyclononadecane-2,5,8,11,14,17-hexaone] gave an MIC of 50 µM (≈ 34.9 µg/mL). `CCCCCC[C@H]1OC[C@@H](C)NC(=O)[C@H](COCC(F)(F)CN)NC(=O)[C@H](CN)NC(=O)[C@H](C2CCCCC2)NC(=O)[C@H](CC(C)C)N(C)C(=O)[C@@H]1C` [Example 81, (3R,6S,9S,12S,15S,18R,19R)-6-((3-Amino-2,2-difluoropropoxy)methyl)-9-(aminomethyl)-12-cyclohexyl-19-hexyl-15-isobutyl-3,16,18-trimethyl-1-oxa-4,7,10,13,16-pentaazacyclononadecane-5,8,11,14,17-pentaone] (cyclo([Chg][Dap]S(X4)[X2][NMeL])) gave an MIC of 12 µM (≈ 9.12 µg/mL). With `CCCCCC[C@H]1OC[C@@H](C)NC(=O)[C@H](CO[C@H]2C[C@H](CN)C2)NC(=O)[C@H](CN)NC(=O)[C@H](C2CCCCC2)NC(=O)[C@H](CC(C)C)N(C)C(=O)[C@@H]1C` [Example 149, (3R,6S,9S,12S,15S,18R,19R)-9-(Aminomethyl)-6-(((1r,3,S)-3-(aminomethyl)cyclobutoxy)methyl)-12-cyclohexyl-19-hexyl-15-isobutyl-3,16,18-trimethyl-1-oxa-4,7,10,13,16-pentaazacyclononadecane-5,8,11,14,17-pentaone] (cyclo([Chg][Dap]S(X8)[X2][NMeL])) the MIC was 8.8 µM (≈ 6.6 µg/mL).

Same assay, conditions: E. coli CFT073 ATCC 700928; Mueller Hinton II cation adjusted Broth with 0.002% v/v Tween-80; 35° C. for 22 hours; lowest concentration that completely prevented bacterial growth
`CCCCCCCCCC[C@H]1OC(=O)CNC(=O)[C@H](CO)NC(=O)[C@H](CO)NC(=O)[C@H]([C@@H](C)CC)NC(=O)[C@H](CC(C)C)N(C)C(=O)[C@@H]1C` [Example 18, (6S,9S,12S,15S,18R,19R)-19-decyl-6,9-bis(hydroxymethyl)-15-isobutyl-16,18-dimethyl-12-[(1S)-1-methylpropyl]-1-oxa-4,7,10,13,16-pentazacyclononadecane-2,5,8,11,14,17-hexone] was tested, and the MIC was 19 µM (≈ 13.3 µg/mL).
